The source of these data is ChEMBL document CHEMBL1146823 (Bioorg Med Chem Lett, 2004).

For the first assay, the target named is T1, Carbonic anhydrase 4 (Bos taurus, UniProt Q95323).
T1 sequence (Q95323 whole entry): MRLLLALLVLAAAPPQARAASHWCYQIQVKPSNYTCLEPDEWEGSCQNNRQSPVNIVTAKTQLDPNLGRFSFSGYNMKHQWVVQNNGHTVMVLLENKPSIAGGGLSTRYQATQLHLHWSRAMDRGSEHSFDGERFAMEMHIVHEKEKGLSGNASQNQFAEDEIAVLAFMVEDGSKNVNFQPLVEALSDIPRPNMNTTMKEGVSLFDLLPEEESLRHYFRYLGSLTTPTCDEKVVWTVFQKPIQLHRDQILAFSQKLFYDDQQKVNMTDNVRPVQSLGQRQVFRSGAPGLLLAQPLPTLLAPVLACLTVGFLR
Description: Inhibitory activity of compound against bovine carbonic anhydrase IV
For `NS(=O)(=O)c1ccc(S(=O)(=O)Nc2cccc3c(Cl)c[nH]c23)cc1`, the IC50 is 65 nM.
The same measure, in the same setting: then `Cc1ccc(-c2cc(C(F)(F)F)nn2-c2ccc(S(N)(=O)=O)cc2)cc1` [CELECOXIB], with 290 nM; and `NS(=O)(=O)c1cc(Cl)c(Cl)c(S(N)(=O)=O)c1` [DICHLORPHENAMIDE], with 380 nM.
Same read-out and setting: for `CC(=O)/N=c1/sc(S(N)(=O)=O)nn1C` [METHAZOLAMIDE] the value was […]; for `CCN1CCCC1CNC(=O)c1cc(S(N)(=O)=O)ccc1OC` (configuration not stated) [SULPIRIDE], 620 nM.
The same measure, in the same setting: for `CC1(C)O[C@@H]2[C@@H](CO[C@@]3(COS(N)(=O)=O)OC(C)(C)O[C@@H]23)O1` [TOPIRAMATE] the value was 54 nM.

In the next assay the target is Carbonic anhydrase 1 (Homo sapiens, UniProt P00915).
Sequence of Carbonic anhydrase 1 (P00915 whole entry): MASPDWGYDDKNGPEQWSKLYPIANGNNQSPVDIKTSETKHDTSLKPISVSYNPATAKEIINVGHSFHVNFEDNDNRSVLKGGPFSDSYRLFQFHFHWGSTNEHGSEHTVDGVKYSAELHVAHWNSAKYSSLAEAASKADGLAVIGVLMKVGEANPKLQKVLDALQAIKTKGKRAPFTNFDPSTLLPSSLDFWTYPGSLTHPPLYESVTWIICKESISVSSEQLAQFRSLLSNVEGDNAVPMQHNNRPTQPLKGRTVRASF
Description: Inhibitory activity of compound against human carbonic anhydrase I
Molecule `C[C@]12CC[C@@H]3c4ccc(OS(N)(=O)=O)cc4CCC3[C@@H]1CCC2=O` (single isomer, unassigned) [EMATE] yielded an IC50 of 37 nM.

Usually IC50 stands for the concentration that gives 50% inhibition. Higher therefore signals weaker potency.
